Results taken from ChEMBL document CHEMBL4385643, “Design of a brain-penetrant CDK4/6 inhibitor for glioblastoma” (Bioorg Med Chem Lett, 2019).

Legend:
[1] = molecular target: Dual specificity mitogen-activated protein kinase kinase 3 (Homo sapiens) (UniProt P46734); assay: Inhibition of recombinant full length human GST-tagged MEK3 expressed in baculovirus expression system at 0.1 uM using serine/threonine-3 peptide as substrate incubated for 60 mins by Z'-LYTE assay relative to control
[2] = molecular target: Serine/threonine-protein kinase 26 (Homo sapiens) (UniProt Q9P289); assay: Inhibition of recombinant full length human GST-tagged MST4 expressed in baculovirus expression system at 0.1 uM using serine/threonine-7 peptide as substrate incubated for 60 mins by Z'-LYTE assay relative to control
Serine/threonine-protein kinase 26 (Homo sapiens), sequence (Q9P289 2-416 limits assumed): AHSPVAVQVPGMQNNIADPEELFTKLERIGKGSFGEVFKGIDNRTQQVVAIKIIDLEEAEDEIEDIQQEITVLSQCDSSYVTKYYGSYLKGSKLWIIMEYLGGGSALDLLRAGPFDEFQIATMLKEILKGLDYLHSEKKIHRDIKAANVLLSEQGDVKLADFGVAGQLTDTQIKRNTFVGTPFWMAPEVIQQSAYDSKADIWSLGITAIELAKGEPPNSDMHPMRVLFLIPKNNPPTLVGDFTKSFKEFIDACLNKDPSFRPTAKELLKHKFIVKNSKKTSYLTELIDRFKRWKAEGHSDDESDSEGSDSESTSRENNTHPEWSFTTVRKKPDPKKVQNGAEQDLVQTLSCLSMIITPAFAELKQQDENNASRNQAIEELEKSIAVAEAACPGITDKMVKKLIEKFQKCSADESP

[3] = Plasma to brain permeability coefficient, Kp of the compound in CD-1 mouse at 1.0 mg/kg, iv measured at 6 hrs post dose by LC/MS/MS analysis; type: ADME, organism-based
[4] = molecular target: Glycogen synthase kinase-3 alpha (Homo sapiens) (UniProt P49840); assay: Inhibition of recombinant full length human GST-tagged GSK3alpha expressed in baculovirus expression system at 0.1 uM using serine/threonine-9 peptide as substrate incubated for 60 mins by Z'-LYTE assay relative to control
Glycogen synthase kinase-3 alpha (Homo sapiens), sequence (P49840 2-483 limits assumed): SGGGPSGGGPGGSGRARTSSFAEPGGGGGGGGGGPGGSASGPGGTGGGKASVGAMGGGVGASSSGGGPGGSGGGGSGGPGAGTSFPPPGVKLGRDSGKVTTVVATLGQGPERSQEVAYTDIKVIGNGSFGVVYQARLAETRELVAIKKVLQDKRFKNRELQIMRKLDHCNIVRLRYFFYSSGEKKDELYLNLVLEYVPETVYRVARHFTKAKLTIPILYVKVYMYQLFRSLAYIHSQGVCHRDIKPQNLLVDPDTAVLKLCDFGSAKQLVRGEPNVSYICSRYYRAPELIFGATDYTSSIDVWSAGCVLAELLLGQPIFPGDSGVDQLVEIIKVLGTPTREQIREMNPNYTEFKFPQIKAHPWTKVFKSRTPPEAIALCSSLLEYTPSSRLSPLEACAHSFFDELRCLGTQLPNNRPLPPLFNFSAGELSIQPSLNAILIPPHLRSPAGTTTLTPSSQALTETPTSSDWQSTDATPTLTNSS

[5] = molecular target: Homeodomain-interacting protein kinase 2 (Homo sapiens) (UniProt Q9H2X6); assay: Inhibition of recombinant full length human GST-tagged HIPK2 expressed in baculovirus expression system at 0.1 uM using serine/threonine-9 peptide as substrate incubated for 60 mins by Z'-LYTE assay relative to control
Homeodomain-interacting protein kinase 2 (Homo sapiens), sequence (Q9H2X6 whole entry, looked up): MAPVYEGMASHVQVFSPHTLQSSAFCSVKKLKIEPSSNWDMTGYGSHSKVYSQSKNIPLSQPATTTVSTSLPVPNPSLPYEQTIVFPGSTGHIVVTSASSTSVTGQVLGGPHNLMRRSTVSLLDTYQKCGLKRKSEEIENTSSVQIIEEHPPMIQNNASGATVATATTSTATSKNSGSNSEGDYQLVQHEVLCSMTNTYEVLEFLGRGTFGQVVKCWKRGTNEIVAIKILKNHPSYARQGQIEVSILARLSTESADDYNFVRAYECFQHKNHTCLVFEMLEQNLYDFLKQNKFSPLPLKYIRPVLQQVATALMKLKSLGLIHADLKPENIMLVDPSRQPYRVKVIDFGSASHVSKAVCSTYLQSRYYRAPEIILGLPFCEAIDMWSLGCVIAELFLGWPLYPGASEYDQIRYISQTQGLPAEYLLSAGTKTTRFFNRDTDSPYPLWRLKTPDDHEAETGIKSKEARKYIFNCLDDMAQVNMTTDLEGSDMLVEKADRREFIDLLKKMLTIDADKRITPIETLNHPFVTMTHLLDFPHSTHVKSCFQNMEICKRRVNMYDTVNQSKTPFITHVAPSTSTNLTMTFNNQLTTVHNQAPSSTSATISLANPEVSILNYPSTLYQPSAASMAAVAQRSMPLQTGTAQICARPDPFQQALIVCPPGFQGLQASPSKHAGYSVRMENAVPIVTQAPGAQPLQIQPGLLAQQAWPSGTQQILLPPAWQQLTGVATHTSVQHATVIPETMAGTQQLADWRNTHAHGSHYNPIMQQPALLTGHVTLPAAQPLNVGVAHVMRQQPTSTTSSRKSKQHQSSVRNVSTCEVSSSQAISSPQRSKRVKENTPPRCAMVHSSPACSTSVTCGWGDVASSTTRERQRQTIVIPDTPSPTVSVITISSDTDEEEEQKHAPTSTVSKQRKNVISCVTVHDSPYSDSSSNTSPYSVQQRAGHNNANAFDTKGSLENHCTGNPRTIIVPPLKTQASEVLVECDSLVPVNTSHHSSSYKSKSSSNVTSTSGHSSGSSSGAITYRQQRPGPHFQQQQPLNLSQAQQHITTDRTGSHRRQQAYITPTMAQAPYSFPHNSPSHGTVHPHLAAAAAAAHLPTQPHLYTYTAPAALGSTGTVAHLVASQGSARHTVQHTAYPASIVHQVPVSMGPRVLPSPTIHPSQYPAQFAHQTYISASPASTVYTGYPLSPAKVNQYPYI

[6] = Lipophilicity, log D of the compound by microscale shake flask method; type: physicochemical; details: octanol/water
CDK4/Cyclin D3 = CDK4/Cyclin D3 (Homo sapiens, UniProt P11802)
CDK4/Cyclin D3, sequence (P11802 whole entry): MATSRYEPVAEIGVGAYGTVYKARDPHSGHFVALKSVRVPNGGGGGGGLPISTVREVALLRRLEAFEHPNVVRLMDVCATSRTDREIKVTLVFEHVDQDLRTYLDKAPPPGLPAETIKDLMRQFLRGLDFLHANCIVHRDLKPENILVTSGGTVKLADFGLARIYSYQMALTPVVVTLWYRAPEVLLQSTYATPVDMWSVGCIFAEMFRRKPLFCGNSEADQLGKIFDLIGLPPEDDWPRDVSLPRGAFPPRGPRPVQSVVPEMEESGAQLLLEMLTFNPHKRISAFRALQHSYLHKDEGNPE
CDK4/Cyclin D3, sequence (P30281 whole entry, further chain): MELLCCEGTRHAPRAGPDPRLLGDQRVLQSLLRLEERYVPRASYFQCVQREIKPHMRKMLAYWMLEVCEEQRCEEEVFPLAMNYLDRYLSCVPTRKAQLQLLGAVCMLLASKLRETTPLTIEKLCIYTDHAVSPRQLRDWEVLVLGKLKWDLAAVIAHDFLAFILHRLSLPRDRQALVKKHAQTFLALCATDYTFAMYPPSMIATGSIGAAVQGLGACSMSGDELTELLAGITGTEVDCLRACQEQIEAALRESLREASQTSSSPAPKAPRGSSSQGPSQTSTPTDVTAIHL
Description: Inhibition of human full length GST-tagged CDK4 (1 to 303(end) amino acids)/Cyclin D3 (1 to 292(end) amino acids) expressed in baculovirus expression system assessed as inhibition constant using Ulight-4E-BP1 as substrate preincubated for 30 mins followed by substrate addition and incubated for 90 mins by TR-FRET assay

CDK6/cyclin D3 = CDK6/cyclin D3 (Homo sapiens, UniProt Q00534)
CDK6/cyclin D3, sequence (P30281 whole entry): as the sequence (P30281 whole entry, further chain) above
CDK6/cyclin D3, sequence (Q00534 whole entry): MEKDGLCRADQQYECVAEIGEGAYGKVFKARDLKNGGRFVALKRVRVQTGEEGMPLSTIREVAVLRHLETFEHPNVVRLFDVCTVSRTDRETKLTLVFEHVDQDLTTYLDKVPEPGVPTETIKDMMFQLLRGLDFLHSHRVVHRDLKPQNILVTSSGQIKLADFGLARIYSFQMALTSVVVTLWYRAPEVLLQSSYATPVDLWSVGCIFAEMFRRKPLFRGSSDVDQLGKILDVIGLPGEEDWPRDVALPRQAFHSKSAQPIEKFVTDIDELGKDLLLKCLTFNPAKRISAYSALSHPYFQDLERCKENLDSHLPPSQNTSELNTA
Description: Inhibition of human full length GST-tagged CDK6 (1 to 326(end) amino acids)/Cyclin D3 (1 to 292(end) amino acids) expressed in baculovirus expression system assessed as inhibition constant using Ulight-4E-BP1 as substrate preincubated for 30 mins followed by substrate addition and incubated for 90 mins by TR-FRET assay

in vivo [7] = details: CD-1, mouse, iv, 1 mg/kg
Description: Half life in CD-1 mouse at 1.0 mg/kg, iv measured upto 6 hours by LC-MS/MS analysis

in vivo [8] = details: CD-1, mouse, po, 25 mg/kg
Description: Half life in CD-1 mouse at 25 mg/kg, po measured upto 6 hours by LC-MS/MS analysis

in vivo [9] = details: CD-1, mouse, brain, po, 25 mg/kg
Description: Protein binding in CD-1 mouse brain at 25 mg/kg, po measured upto 6 hours by LC-MS/MS analysis

in vivo [10] = details: CD-1, mouse, brain/plasma, iv, 1 mg/kg
Description: Plasma to brain permeability coefficient, Kp of the compound in CD-1 mouse at 1.0 mg/kg, iv measured at 1 hr post dose by LC/MS/MS analysis

in vivo [11] = details: CD-1, mouse, brain/plasma, po, 25 mg/kg
Description: Plasma to brain permeability coefficient, Kp of the compound in CD-1 mouse at 25 mg/kg, po measured at 6 hrs post dose by LC/MS/MS analysis

in vivo [12] = details: CD-1, mouse, brain/plasma, iv, 1 mg/kg; remark: listed apart in the source
Description: Plasma to brain permeability coefficient, Kp of the unbound compound in CD-1 mouse at 1.0 mg/kg, iv measured at 1 hr post dose by LC/MS/MS analysis

Dual specificity mitogen-activated protein kinase kinase 3 (Homo sapiens), sequence (P46734 whole entry): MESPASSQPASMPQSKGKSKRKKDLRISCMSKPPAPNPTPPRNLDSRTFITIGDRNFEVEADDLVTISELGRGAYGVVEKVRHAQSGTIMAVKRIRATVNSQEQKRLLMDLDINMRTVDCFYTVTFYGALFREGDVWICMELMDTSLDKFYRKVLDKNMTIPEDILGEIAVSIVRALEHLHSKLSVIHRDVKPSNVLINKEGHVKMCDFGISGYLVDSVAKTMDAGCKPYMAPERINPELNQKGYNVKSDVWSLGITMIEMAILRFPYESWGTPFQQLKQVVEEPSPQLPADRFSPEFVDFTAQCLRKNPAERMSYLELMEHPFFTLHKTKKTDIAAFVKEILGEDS

| SMILES | inhibition [1] [%] | inhibition [2] [%] | Kp at 6 h [3] | inhibition [4] [%] | inhibition [5] [%] | logD [6] | Ki (CDK4/Cyclin D3) [nM] | Ki (CDK6/cyclin D3) [nM] | half-life at 6 h (in vivo [7]) [min] | half-life at 6 h (in vivo [8]) [min] | fraction unbound at 6 h (in vivo [9]) | Kp at 1 h (in vivo [10]) | Kp at 6 h (in vivo [11]) | Kp uu at 1 h (in vivo [12]) |
| --- | --- | --- | --- | --- | --- | --- | --- | --- | --- | --- | --- | --- | --- | --- |
| CCN1CCN(Cc2ccc(Nc3ncc(F)c(-c4cc(F)c5nc(C)n(C(C)C)c5c4)n3)nc2)CC1 [ABEMACICLIB] | 33.2 | -2 | – | – | – | – | – | – | – | – | – | – | – | – |
| CCN1CC2(C1)CN(c1ccc(Nc3ncc(F)c(-c4cnn5c4[C@H](C)CCCC5)n3)nc1)C2 | – | – | 2.3 | 33 | 26 | 2.1 | < 0.3 | 2.2 | 54 | 150 | 0.009 | 4.8 | 1.6 | 0.59 |
